From US7425537B2, “SH2 domain binding inhibitors” (The United States of America as represented by the …, priority 2000, dated 2008) come the findings set out here.

A value given as a limit tells only on which side of the number the result lay.

One data set concerns the target T1, c-Met-Grb2 interaction (Mus musculus, UniProt Q60631).
T1 construct: endogenous in cells; host or cells: murine 32D c-met cells
Briefly: c-Met-Grb2 co-immunoprecipitation/immunoblot in intact 32D c-met cells after HGF/NK1 stimulation. The format is cell-based, murine. The settings on record: 32D c-met cells pretreated 16 h with 30 nM or 300 nM prior to HGF/NK1 stimulation. The protocol: To characterize the time period and dose which the Grb2 SH2 domain inhibitor (antagonist) compound of formula 4 enters intact cells, the murine IL-3-dependent cell line 32D c-met was used. The effects of the inhibitor on c-Met-Grb2 interaction was examined by co-immunoprecipitation/immunoblot analysis. Cells were cultured in RPMI 1640+15% FBS and 5% WEHI-3B conditioned medium. Intact 32Dc-met cells were treated with different amount (3, 30, 300 nM) of the compound for 1, 2, 4, and 16 h, then briefly stimulated with HGF/NK1 for 10 minutes before lysis, immunoprecipitated with anti-Grb2 antibodies (Santa Cruz), and immunoblotting with anti-c-Met (Santa Cruz), or anti-Grb2 (Transduction Lab). HGF/NK1 stimulated co-immunoprecipitation of the 145 kDa c-Met beta subunit with Grb2. When cells were pretreated for 16 h with 30 nM or 300 nM compound of formula 4 prior to HGF/NK1 stimulation, the amount of HGF receptor that was co-immunoprecipitated with Grb2 was reduced by approximately 50%.
On the technique in general: In western blotting, separated proteins are transferred to a membrane and probed.

The subject of data set [1] is erbB-2 driven breast cancer cells. Kind of data set: Assay of cell proliferation (direct cell counting). The format is cell-based. To be noted: FIG. 26, read-out: IC50, cell growth inhibition.

T1 sequence (Q60631 whole entry): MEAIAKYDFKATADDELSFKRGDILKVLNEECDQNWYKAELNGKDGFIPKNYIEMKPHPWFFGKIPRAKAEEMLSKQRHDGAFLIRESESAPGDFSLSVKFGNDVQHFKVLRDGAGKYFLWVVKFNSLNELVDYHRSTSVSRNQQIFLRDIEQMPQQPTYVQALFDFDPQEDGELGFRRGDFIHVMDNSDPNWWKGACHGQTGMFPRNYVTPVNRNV

In the case of `NC(=O)C[C@@H]1NC(=O)C2(CCCCC2)NC(=O)C[C@@H](c2ccc(CP(=O)(O)O)cc2)C=CC[C@@H](Cc2cccc3ccccc23)CNC1=O` [Compound 4a, 2-[(9S, 13S, 17R)-8, 11, 20-triaza-13-(naphthylmethyl)-7, 10, 19-trioxo-17-[4-(phosphonomethyl)phenyl]spiro[5.14]icos-15-en-9-yl]acetamide], the “Reduction of amount of HGF receptor co-immunoprecipitated with Grb2” value on c-Met-Grb2 interaction was “approximately 50%”.

With `NC(=O)C[C@@H]1NC(=O)C2(CCCCC2)NC(=O)[C@@H](CC(=O)O)[C@@H](c2ccc(CP(=O)(O)O)cc2)/C=C/C[C@@H](Cc2cccc3ccccc23)CNC1=O` [Compound 233, 2-[(9S, 10S, 14S, 18S)-7, 16, 19-triaza-18-(carbamoylmethyl)-14-(naphthylmethyl)-8,17,20-trioxo-10-[4-(phosphonomethyl)phenyl]spiro[5.14]icos-11-en-9-yl]acetic acid], the melting point is 260 °C (dec.). Also, the IC50 in data set [1] is less than 1 µM.

A word on the IC50: it is the point on the concentration scale where inhibition reaches its midpoint. A word on the melting point: it is the temperature, or range, at which the solid turns liquid.
